Entries after “also recorded” stand apart in the source; their conditions may differ.
Columns and labels:
SUMO E1 ligase protein = biological target: T1, SUMO E1 ligase protein (Homo sapiens, UniProt Q9UBE0+Q9UBT2); assay: In vitro SUMO E1 ATP hydrolysis assay for SUMO E1 ligase activity (AMP produced, luciferase luminescence); assay type: biochemical; details: racemic mixtures; for SUMO E1 activity (luminescence), ranking among the 11 compounds: 1 μM concentration; for dose-dependent effect in SUMO E1 assays compared with control compound N106: luminescence, FIG. 4B
T1 sequence (Q9UBE0 1-346): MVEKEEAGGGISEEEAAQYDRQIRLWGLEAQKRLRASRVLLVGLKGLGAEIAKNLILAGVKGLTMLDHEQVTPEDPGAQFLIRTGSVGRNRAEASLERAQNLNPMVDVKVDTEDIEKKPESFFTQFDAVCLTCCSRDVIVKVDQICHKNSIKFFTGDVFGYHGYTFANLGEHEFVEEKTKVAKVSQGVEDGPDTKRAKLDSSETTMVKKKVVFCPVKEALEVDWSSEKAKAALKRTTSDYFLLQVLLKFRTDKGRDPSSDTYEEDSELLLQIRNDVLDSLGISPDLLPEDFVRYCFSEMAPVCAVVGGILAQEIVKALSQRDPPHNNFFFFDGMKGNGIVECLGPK
T1 sequence (Q9UBT2 1-640): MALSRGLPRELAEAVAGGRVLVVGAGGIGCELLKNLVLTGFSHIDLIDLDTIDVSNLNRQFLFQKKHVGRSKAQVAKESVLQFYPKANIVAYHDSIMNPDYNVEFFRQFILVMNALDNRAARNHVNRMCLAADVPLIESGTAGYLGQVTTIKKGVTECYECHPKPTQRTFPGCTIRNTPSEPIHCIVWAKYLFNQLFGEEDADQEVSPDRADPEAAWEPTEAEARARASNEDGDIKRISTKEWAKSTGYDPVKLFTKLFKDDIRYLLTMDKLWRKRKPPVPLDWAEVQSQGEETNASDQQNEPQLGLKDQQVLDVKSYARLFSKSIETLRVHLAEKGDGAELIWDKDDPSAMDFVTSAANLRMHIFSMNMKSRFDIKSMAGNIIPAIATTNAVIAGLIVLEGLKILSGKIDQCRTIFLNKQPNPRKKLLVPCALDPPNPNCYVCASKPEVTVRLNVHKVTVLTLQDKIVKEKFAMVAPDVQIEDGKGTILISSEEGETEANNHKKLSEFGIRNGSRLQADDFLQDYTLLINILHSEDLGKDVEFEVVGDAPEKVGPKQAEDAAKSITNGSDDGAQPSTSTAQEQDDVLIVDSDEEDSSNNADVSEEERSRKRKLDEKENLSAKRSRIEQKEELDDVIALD
Protocol: (§1) To investigate the effects of carboxamide compounds as SUMOylation activators, the compounds were subjected to an ATP-based assay of SUMO E1 ligase activity. The racemic mixture of each compound was first tested with the SUMO E1 ligase assay to test for SUMO activation activity. Compounds with no SUMO E1 ligase activity were excluded. For compounds with recorded SUMO E1 ligase activity, their four pure stereoisomers were tested for SUMO E1 ligase activity by measuring the adenosine monophosphate (AMP) produced from the E1 ligase reaction as described below. Each pure stereoisomer was also subjected to functional analysis in engineered cardiac tissues (FIG. 3A). The pure stereoisomers of compounds with SUMO E1 ligase activity were administered to human ventricular cardiac tissue strips that had been subjected to a maturation protocol (see below). […] Stereoisomers that could induce SERCA2a SUMOylation were further tested for their inotropic effects, in hvCTS models of cardiomyopathy and heart failure, by fabrication of hvCTS with cardiomyocytes derived from human induced pluripotent stem cells (i.e., hiPSCs) of patients with cardiomyopathy.
Stereoisomers of the test compounds were incubated with SUMO E1 ligase protein and ATP. E1 ligase activation by the test compound was determined by measuring the AMP produced during the enzymatic reaction after removal of the remaining ATP by ATP adenyl cyclase and converting AMP to ADP by polyphosphate-AMP phosphotransferase. The converted ADP was further converted to ATP using […] and detected through luciferase reaction.

[1] = test system: human ventricular cardiac tissue strips (hvCTS); assay: Contractility of matured human ventricular cardiac tissue strips (hvCTS), twitch force from post deflection; assay type: cell-based; details: for effect on developed force: matured hvCTS with positive force frequency relationship, day 24; for effect on developed force / effect on relaxation time: 1.5 Hz, 10 minutes after each dose
Excerpt: FIG. 5 discloses the dose-dependent effects of stereoisomers of Compounds 6 on developed force in human cardiac tissue strips that were subjected to maturation protocol (see description below in the section entitled “Maturation of hvCTS”) with maturation media and electrical stimulation of 0.5 Hz from day 7-10, 1.0 Hz from day 10-13, 1.5 Hz from day 13-15, 2.0 Hz from day 16-19, 2.5 Hz from day 19-22 and 3.0 from day 22-24. Contractile data were collected at day 24 post-hvCTS fabrication. Developed forces were measured at 1.5 Hz, 10 minutes after administration of each dose of each stereoisomer. Only hvCTSs with positive force frequency relationships (+FFRs) were tested.
Contractile data were collected at day 24 post-hvCTS fabrication. Developed forces were measured at 1.5 Hz, 10 minutes after administration of each dose of the stereoisomer. Only hvCTSs with positive force frequency relationships (+FFRs) were tested.
as §1
The effects of compounds on cardiac muscle function as evaluated by the Novoheart hvCTS assay are derived from tracings of twitch force versus time. The twitch force may be calculated from measurements of end-post deflection based on a published beam-bending equation as previously described.^29, 30 The twitch force tracings are then analyzed from each “heartbeat” of the tissue, and averaged over multiple beats to extract metrics related to the beat rate frequency and beat rate variability, the passive and active tissue forces, and the contraction and relaxation kinetics, as detailed previously in the field^29-32, and briefly described as follows:
For each beat, the “passive (or diastolic) force” is the minimum value of the twitch force; the “active (or systolic) force” is the maximum value of the twitch force; and the “contractile (or developed) force” is the difference between the systolic and diastolic forces.
“Contractile kinetics”, in some aspects, are analyzed by examining the twitch force tracing during the increase from the diastolic minimum to the systolic maximum portion of the curve, and these can include the duration of rise time from diastolic to systolic force and related metrics (e.g. duration of rise time from 5% maximum to 95% maximum force, and the like), the area under the curve of rise time from minimum to maximum force, the maximum rate of change of force versus time during contraction (max+dF/dt), and other related metrics. […]

[2] = cited from earlier work

Compound: CC(NC(=O)C1CC(=O)N(c2ccc(C(=O)c3ccccc3)cc2)C1)c1cnn2ccccc12 (mixture of isomers) [Compound 6, 1-(4-benzoylphenyl)-5-oxo-N-(1-(pyrazolo[1,5-a]pyridin-3-yl)ethyl) pyrrolidine-3-carboxamide]
- SUMO E1 activity (luminescence), ranking among the 11 compounds (SUMO E1 ligase protein): largest effects; also recorded: highest
- dose-dependent effect in SUMO E1 assays compared with control compound N106 (SUMO E1 ligase protein): larger effects than the control compound N106

Compound: CC(NC(=O)C1CC(=O)N(c2cccnc2)C1)c1cnn2ccccc12 (mixture of isomers) [Compound 9, 5-oxo-N-(1-(pyrazolo[1,5-a]pyridin-3-yl)ethyl)-1-(pyridin-3-yl) pyrrolidine-3-carboxamide]
- SUMO E1 activity (luminescence), ranking among the 11 compounds (SUMO E1 ligase protein): largest effects; also recorded: highest
- dose-dependent effect in SUMO E1 assays compared with control compound N106 (SUMO E1 ligase protein): larger effects than the control compound N106

Compound: CC(NC(=O)C1CC(=O)N(c2cnc3ccccc3c2)C1)c1cnn2ccccc12 (mixture of isomers) [Compound 11, 5-oxo-N-(1-(pyrazolo[1,5-a]pyridin-3-yl)ethyl)-1-(quinolin-3-yl) pyrrolidine-3-carboxamide]
- SUMO E1 activity (luminescence), ranking among the 11 compounds (SUMO E1 ligase protein): largest effects; also recorded: highest

Compound: C[C@@H](NC(=O)[C@@H]1CC(=O)N(c2ccc(C(=O)c3ccccc3)cc2)C1)c1cnn2ccccc12 [Compound 6-1, 1-(4-benzoylphenyl)-(R)-5-oxo-N—((R)-1-(pyrazolo[1,5-a]pyridin-3-yl)ethyl) pyrrolidine-3-carboxamide]
- concentration at which the increase in developed force peaked ([1]; matured hvCTS): 1 µM
- contractility (overall conclusion) ([1]; matured hvCTS): improved
- effect on contraction time ([1]; matured hvCTS): did not show any significant difference
- effect on passive tension ([1]; matured hvCTS): did not show any significant difference
- effect on developed force [1]: positive inotropic effects; also recorded: concentration-dependent increase
- effect on relaxation time ([1]; matured hvCTS): did not show any significant difference

Compound: C[C@H](NC(=O)[C@H]1CC(=O)N(c2ccc(C(=O)c3ccccc3)cc2)C1)c1cnn2ccccc12 [Compound 6-2, 1-(4-benzoylphenyl)-(S)-5-oxo-N—((S)-1-(pyrazolo[1,5-a]pyridin-3-yl)ethyl) pyrrolidine-3-carboxamide]
- concentration at which the increase in developed force peaked ([1]; matured hvCTS): 1 µM
- contractility (overall conclusion) ([1]; matured hvCTS): improved
- effect on contraction time ([1]; matured hvCTS): did not show any significant difference
- effect on passive tension ([1]; matured hvCTS): did not show any significant difference
- effect on developed force [1]: positive inotropic effects; also recorded: concentration-dependent increase
- effect on relaxation time ([1]; matured hvCTS): did not show any significant difference

Compound: C[C@@H](NC(=O)[C@@H]1CC(=O)N(c2cccnc2)C1)c1cnn2ccccc12 [Compound 9-1, (R)-5-oxo-N—((R)-1-(pyrazolo[1,5-a]pyridin-3-yl)ethyl)-1-(pyridin-3-yl) pyrrolidine-3-carboxamide]
- effect on relaxation time ([1]; matured hvCTS): decrease in relaxation time that was dose dependent

Compound: C[C@H](NC(=O)[C@H]1CC(=O)N(c2cccnc2)C1)c1cnn2ccccc12 [Compound 9-2, (S)-5-oxo-N—((S)-1-(pyrazolo[1,5-a]pyridin-3-yl)ethyl)-1-(pyridin-3-yl) pyrrolidine-3-carboxamide]
- effect on relaxation time ([1]; matured hvCTS): decrease in relaxation time that was dose dependent

Compound: C[C@H](NC(=O)[C@@H]1CC(=O)N(c2cccnc2)C1)c1cnn2ccccc12 [Compound 9-3, (R)-5-oxo-N—((S)-1-(pyrazolo[1,5-a]pyridin-3-yl)ethyl)-1-(pyridin-3-yl) pyrrolidine-3-carboxamide]
- contractile kinetics (overall conclusion) ([1]; matured hvCTS): improved
- effect on relaxation time ([1]; matured hvCTS): decrease in relaxation time that was dose dependent
- decrease in relaxation time ([1]; matured hvCTS, at 10 μM): 15%

Compound: C[C@@H](NC(=O)[C@H]1CC(=O)N(c2cccnc2)C1)c1cnn2ccccc12 [Compound 9-4, (S)-5-oxo-N—((R)-1-(pyrazolo[1,5-a]pyridin-3-yl)ethyl)-1-(pyridin-3-yl) pyrrolidine-3-carboxamide]
- inhibition at 1 µM ([1]; Homo sapiens, 10 min, matured hvCTS, at 1 μM, read-out: maximum decrease in developed force): 10%
- effect on developed force [1]: small but significant dose-dependent decrease
- effect on relaxation time ([1]; matured hvCTS): decrease in relaxation time that was dose dependent

Compound: COc1ccc(-c2nnc(Nc3nc4c(OC)cccc4s3)o2)cc1 [Compound N106, N-(4-methoxybenzo[d]thiazol-2-yl)-5-(4-methoxyphenyl)-1,3,4-oxadiazol-2-amine]
- half-life in vivo [2]: too short

From US20260284019A1, “CARBOXAMIDE COMPOUNDS AS SUMO ACTIVATING COMPOUNDS FOR TREATMENT OF CARDIOVASCULAR DISEASES” (NOVOHEART INTERNATIONAL LIMITED, priority 2023, published 2026)
